In ChEMBL document CHEMBL3885881, “DrugMatrix”:

Species: Rattus norvegicus
Assay: DrugMatrix - Regimen: Daily Repeat
Format: toxicity, organism-based, Sprague-Dawley
Design: regimen Daily Repeat, gender Male, age 6-8 weeks
Conditions: in vivo, iv, 0.05 mg/kg, dose level Low, vehicle 100 % SALINE; for ABSOLUTE BASOPHIL / ABSOLUTE EOSINOPHIL / ABSOLUTE LYMPHOCYTE / ABSOLUTE MONOCYTE / ABSOLUTE SEGMENTED NEUTROPHIL / BASOPHIL / EOSINOPHIL / ERYTHROCYTE COUNT / HEMATOCRIT / HEMOGLOBIN / LEUKOCYTE COUNT / LYMPHOCYTE / MEAN CORPUSCULAR HEMOGLOBIN / MEAN CORPUSCULAR HEMOGLOBIN CONCENTRATION / MEAN CORPUSCULAR VOLUME / MONOCYTE / NEUTROPHIL / NUCLEATED RED BLOOD CELLS / PLATELET COUNT: tissue Blood; for ALANINE AMINOTRANSFERASE / ALBUMIN / ALKALINE PHOSPHATASE / ASPARTATE AMINOTRANSFERASE / BLOOD UREA NITROGEN / CARBON DIOXIDE / CHLORIDE / CHOLESTEROL / CREATINE PHOSPHOKINASE / CREATININE / GLUCOSE / LACTATE DEHYDROGENASE / LIPASE / PHOSPHORUS / POTASSIUM / SODIUM / TOTAL BILIRUBIN / TOTAL PROTEIN / URIC ACID: tissue Plasma

SMILES: CC[C@]1(O)C[C@H]2CN(CCc3c([nH]c4ccccc34)[C@@](C(=O)OC)(c3cc4c(cc3OC)N(C=O)[C@H]3[C@@](O)(C(=O)OC)[C@H](OC(C)=O)[C@]5(CC)C=CCN6CC[C@]43[C@@H]65)C2)C1 [VINCRISTINE]
- ABSOLUTE BASOPHIL (72 h, time 3 day): 0 CELLS/uL
- ABSOLUTE EOSINOPHIL (72 h, time 3 day): 50 CELLS/uL
- ABSOLUTE LYMPHOCYTE (72 h, time 3 day): 6489 CELLS/uL
- ABSOLUTE MONOCYTE (72 h, time 3 day): 75.67 CELLS/uL
- ABSOLUTE SEGMENTED NEUTROPHIL (72 h, time 3 day): 285.33 CELLS/uL
- BASOPHIL (72 h, time 3 day): 0%
- EOSINOPHIL (72 h, time 3 day): 0.67%
- ERYTHROCYTE COUNT (72 h, time 3 day): 5.18 x10E6/uL
- HEMATOCRIT (72 h, time 3 day): 30.77%
- HEMOGLOBIN (72 h, time 3 day): 12.07 G/DL
- LEUKOCYTE COUNT (72 h, time 3 day): 6.9 x10E3/uL
- LYMPHOCYTE (72 h, time 3 day): 94.33%
- MEAN CORPUSCULAR HEMOGLOBIN (72 h, time 3 day): 23.3 pg
- MEAN CORPUSCULAR HEMOGLOBIN CONCENTRATION (72 h, time 3 day): 39.2 G/DL
- MEAN CORPUSCULAR VOLUME (72 h, time 3 day): 59.47 fL
- MONOCYTE (72 h, time 3 day): 1%
- NEUTROPHIL (72 h, time 3 day): 4%
- NUCLEATED RED BLOOD CELLS (72 h, time 3 day): 0.33 /100WBC
- PLATELET COUNT (72 h, time 3 day): 1561 x10E3/uL
- ALANINE AMINOTRANSFERASE (72 h, time 3 day): 52.67 u/L
- ALBUMIN (72 h, time 3 day): 4.03 G/DL
- ALKALINE PHOSPHATASE (72 h, time 3 day): 301.33 u/L
- ASPARTATE AMINOTRANSFERASE (72 h, time 3 day): 100 u/L
- BLOOD UREA NITROGEN (72 h, time 3 day): 13.67 mg/dL
- CARBON DIOXIDE (72 h, time 3 day): 35.67 mmol/L
- CHLORIDE (72 h, time 3 day): 98 MEQ/L
- CHOLESTEROL (72 h, time 3 day): 80.67 mg/dL
- CREATINE PHOSPHOKINASE (72 h, time 3 day): 355.67 u/L
- CREATININE (72 h, time 3 day): 0.15 mg/dL
- GLUCOSE (72 h, time 3 day): 138.33 mg/dL
- LACTATE DEHYDROGENASE (72 h, time 3 day): 108.33 u/L
- LIPASE (72 h, time 3 day): 9 u/L
- PHOSPHORUS (72 h, time 3 day): 10.47 mg/dL
- POTASSIUM (72 h, time 3 day): 5.91 MEQ/L
- SODIUM (72 h, time 3 day): 142.8 MEQ/L
- TOTAL BILIRUBIN (72 h, time 3 day): 0.17 mg/dL
- TOTAL PROTEIN (72 h, time 3 day): 6 G/DL
- URIC ACID (72 h, time 3 day): 0.5 mg/dL
- ABSOLUTE BASOPHIL (120 h, time 5 day): 0 CELLS/uL
- ABSOLUTE EOSINOPHIL (120 h, time 5 day): 15.67 CELLS/uL
- ABSOLUTE LYMPHOCYTE (120 h, time 5 day): 5856.67 CELLS/uL
- ABSOLUTE MONOCYTE (120 h, time 5 day): 77.33 CELLS/uL
- ABSOLUTE SEGMENTED NEUTROPHIL (120 h, time 5 day): 217 CELLS/uL
- BASOPHIL (120 h, time 5 day): 0%
- EOSINOPHIL (120 h, time 5 day): 0.33%
- ERYTHROCYTE COUNT (120 h, time 5 day): 4.27 x10E6/uL
- HEMATOCRIT (120 h, time 5 day): 27.3%
- HEMOGLOBIN (120 h, time 5 day): 10.7 G/DL
- LEUKOCYTE COUNT (120 h, time 5 day): 6.17 x10E3/uL
- LYMPHOCYTE (120 h, time 5 day): 94%
- MEAN CORPUSCULAR HEMOGLOBIN (120 h, time 5 day): 25.1 pg
- MEAN CORPUSCULAR HEMOGLOBIN CONCENTRATION (120 h, time 5 day): 39.17 G/DL
- MEAN CORPUSCULAR VOLUME (120 h, time 5 day): 64.03 fL
- MONOCYTE (120 h, time 5 day): 1.33%
- NEUTROPHIL (120 h, time 5 day): 4.33%
- NUCLEATED RED BLOOD CELLS (120 h, time 5 day): 0 /100WBC
- PLATELET COUNT (120 h, time 5 day): 1370.67 x10E3/uL
- ALANINE AMINOTRANSFERASE (120 h, time 5 day): 42 u/L
- ALBUMIN (120 h, time 5 day): 3.8 G/DL
- ALKALINE PHOSPHATASE (120 h, time 5 day): 313 u/L
- ASPARTATE AMINOTRANSFERASE (120 h, time 5 day): 132.33 u/L
- BLOOD UREA NITROGEN (120 h, time 5 day): 18.67 mg/dL
- CARBON DIOXIDE (120 h, time 5 day): 29.67 mmol/L
- CHLORIDE (120 h, time 5 day): 99.67 MEQ/L
- CHOLESTEROL (120 h, time 5 day): 65 mg/dL
- CREATINE PHOSPHOKINASE (120 h, time 5 day): 254 u/L
- CREATININE (120 h, time 5 day): 0.18 mg/dL
- GLUCOSE (120 h, time 5 day): 187.33 mg/dL
- LACTATE DEHYDROGENASE (120 h, time 5 day): 136.67 u/L
- LIPASE (120 h, time 5 day): 9 u/L
- PHOSPHORUS (120 h, time 5 day): 10.8 mg/dL
- POTASSIUM (120 h, time 5 day): 5.21 MEQ/L
- SODIUM (120 h, time 5 day): 143.2 MEQ/L
- TOTAL BILIRUBIN (120 h, time 5 day): 0.2 mg/dL
- TOTAL PROTEIN (120 h, time 5 day): 5.4 G/DL
- URIC ACID (120 h, time 5 day): 0.73 mg/dL
